Measured values from patent US12358886B2, “Heterocyclic compounds for use in the treatment of cancer” (Artios Pharma Limited, priority 2019, dated 2025).

molecular target: Polθ protein (amino acids 2-2590) (Homo sapiens, UniProt O75417); assay: Polθ full length enzyme potency assay (PicoGreen); conditions: Polθ IC50 (nM), full length N-His, C-term FLAG tagged Polθ, PicoGreen fluorescence, 12 point concentration response
Sequence (O75417 2-2590): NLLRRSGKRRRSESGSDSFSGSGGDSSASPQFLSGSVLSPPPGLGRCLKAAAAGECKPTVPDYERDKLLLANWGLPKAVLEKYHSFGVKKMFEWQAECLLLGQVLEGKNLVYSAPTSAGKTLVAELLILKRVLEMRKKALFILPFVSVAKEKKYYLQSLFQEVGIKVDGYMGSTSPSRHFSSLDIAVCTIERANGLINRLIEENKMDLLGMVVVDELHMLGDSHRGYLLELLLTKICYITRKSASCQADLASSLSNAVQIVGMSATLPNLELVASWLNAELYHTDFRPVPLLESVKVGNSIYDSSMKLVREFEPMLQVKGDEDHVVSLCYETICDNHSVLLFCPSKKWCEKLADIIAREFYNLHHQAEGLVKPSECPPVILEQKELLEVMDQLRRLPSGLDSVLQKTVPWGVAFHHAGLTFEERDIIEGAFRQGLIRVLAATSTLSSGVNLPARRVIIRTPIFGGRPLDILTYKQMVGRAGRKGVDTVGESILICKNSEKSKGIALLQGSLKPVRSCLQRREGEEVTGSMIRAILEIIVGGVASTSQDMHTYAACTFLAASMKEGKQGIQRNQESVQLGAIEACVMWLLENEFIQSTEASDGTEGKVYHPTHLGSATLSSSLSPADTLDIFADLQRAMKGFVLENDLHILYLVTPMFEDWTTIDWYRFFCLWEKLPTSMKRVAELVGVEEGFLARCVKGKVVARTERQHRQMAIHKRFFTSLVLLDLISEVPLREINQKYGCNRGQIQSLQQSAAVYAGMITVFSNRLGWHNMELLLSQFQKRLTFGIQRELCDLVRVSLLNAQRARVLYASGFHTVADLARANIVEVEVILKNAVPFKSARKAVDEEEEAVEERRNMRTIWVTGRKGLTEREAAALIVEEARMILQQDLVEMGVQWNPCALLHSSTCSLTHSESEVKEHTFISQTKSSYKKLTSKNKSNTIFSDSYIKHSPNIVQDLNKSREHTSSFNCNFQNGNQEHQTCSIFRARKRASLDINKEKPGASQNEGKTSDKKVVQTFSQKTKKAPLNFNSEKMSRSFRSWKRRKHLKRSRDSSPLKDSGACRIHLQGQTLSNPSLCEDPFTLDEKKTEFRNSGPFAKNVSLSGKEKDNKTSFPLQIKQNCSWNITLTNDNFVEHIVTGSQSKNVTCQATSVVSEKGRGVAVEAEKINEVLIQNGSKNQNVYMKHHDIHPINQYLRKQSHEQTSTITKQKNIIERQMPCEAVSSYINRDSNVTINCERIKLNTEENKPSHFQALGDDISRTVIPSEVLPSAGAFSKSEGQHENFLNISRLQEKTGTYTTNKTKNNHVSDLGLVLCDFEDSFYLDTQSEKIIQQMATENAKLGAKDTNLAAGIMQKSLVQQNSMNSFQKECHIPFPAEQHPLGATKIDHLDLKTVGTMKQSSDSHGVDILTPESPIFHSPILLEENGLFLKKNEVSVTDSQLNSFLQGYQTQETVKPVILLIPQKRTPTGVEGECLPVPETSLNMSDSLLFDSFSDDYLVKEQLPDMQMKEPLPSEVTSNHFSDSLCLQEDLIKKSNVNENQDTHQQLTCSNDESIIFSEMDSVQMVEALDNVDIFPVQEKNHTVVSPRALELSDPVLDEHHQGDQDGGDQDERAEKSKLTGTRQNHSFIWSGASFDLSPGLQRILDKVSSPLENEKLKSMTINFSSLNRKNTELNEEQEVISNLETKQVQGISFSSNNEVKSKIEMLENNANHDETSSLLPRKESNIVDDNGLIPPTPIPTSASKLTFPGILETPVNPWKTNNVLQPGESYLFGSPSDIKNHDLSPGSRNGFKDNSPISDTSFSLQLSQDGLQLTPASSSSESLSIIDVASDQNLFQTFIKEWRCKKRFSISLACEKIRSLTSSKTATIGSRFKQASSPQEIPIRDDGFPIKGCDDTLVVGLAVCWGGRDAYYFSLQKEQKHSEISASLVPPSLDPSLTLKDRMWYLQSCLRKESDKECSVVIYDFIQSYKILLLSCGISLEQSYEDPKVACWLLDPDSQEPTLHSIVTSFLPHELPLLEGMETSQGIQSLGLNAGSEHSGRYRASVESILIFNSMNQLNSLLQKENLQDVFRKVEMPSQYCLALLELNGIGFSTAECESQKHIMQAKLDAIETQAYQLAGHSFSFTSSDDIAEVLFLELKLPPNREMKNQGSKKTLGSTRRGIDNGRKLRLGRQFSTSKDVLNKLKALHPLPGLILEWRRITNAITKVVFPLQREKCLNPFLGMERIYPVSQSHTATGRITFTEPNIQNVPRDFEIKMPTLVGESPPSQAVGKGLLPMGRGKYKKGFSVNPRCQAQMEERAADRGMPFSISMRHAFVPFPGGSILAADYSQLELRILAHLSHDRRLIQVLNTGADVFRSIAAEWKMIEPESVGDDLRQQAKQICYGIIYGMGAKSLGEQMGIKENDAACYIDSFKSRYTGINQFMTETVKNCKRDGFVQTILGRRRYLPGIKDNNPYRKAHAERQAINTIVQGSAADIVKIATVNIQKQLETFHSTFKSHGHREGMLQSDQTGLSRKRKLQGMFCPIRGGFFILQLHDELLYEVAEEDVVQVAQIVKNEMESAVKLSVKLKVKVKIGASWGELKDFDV

SMILES | IC50
CCN(C(=O)[C@@H]1C[C@H](F)CN1c1nc(C)cc(C)c1C#N)c1ccc(F)c(F)c1 [Example 37, (2S,4S)-1-(3-Cyano-4,6-dimethylpyridin-2-yl)-N-(3,4-difluorophenyl)-N-ethyl-4-fluoropyrrolidine-2-carboxamide] | 248 nM
Cc1cc(C(F)(F)F)cc(N2C(=O)N(CC(O)CN(C)C)C[C@H]2C(=O)N(C)c2ccc(F)c(Cl)c2F)n1 (stereo partly drawn) [Example 214, (4S)—N-(3-Chloro-2,4-difluorophenyl)-1-(3-(dimethylamino)-2-hydroxypropyl)-N-methyl-3-(6-methyl-4-(trifluoromethyl)pyridin-2-yl)-2-oxoimidazolidine-4-carboxamide] | 11 nM
Cc1cc(C(F)(F)F)c(C#N)c(N2C[C@@H](O)C[C@H]2C(=O)N(C)c2ccc(F)c(C)c2)n1 [Example 6, (2S,4S)-1-(3-Cyano-6-methyl-4-(trifluoromethyl)pyridin-2-yl)-N-(4-fluoro-3-methylphenyl)-4-hydroxy-N-methylpyrrolidine-2-carboxamide] | 11 nM
Cc1cccc(N(C)C(=O)[C@@H]2C[C@H](O)CN2c2cc(C(C)C)cc(C)n2)c1 [Example 28, (2S,4S)-4-Hydroxy-1-(4-isopropyl-6-methylpyridin-2-yl)-N-methyl-N-(m-tolyl)pyrrolidine-2-carboxamide] | 48 nM
CC(=O)N1CCN(CCCN2C[C@@H](C(=O)N(C)c3ccc(F)c(Cl)c3F)N(c3cc(C(F)(F)F)cc(C)n3)C2=O)CC1 [Example 221, (S)-1-(3-(4-Acetylpiperazin-1-yl)propyl)-N-(3-chloro-2,4-difluorophenyl)-N-methyl-3-(6-methyl-4-(trifluoromethyl)pyridin-2-yl)-2-oxoimidazolidine-4-carboxamide] | 11 nM
Cc1cc(C(F)(F)F)cc(N2C(=O)NC[C@H]2C(=O)N(c2ccc(F)c(Cl)c2)C(C)C)n1 [Example 179, (S)—N-(3-Chloro-4-fluorophenyl)-N-isopropyl-3-(6-methyl-4-(trifluoromethyl)pyridin-2-yl)-2-oxoimidazolidine-4-carboxamide] | 15 nM
Cc1cc(C(F)(F)F)cc(N2C(=O)N(CC(O)CO)C[C@H]2C(=O)N(c2ccc(F)c(Cl)c2)C2CC2)n1 (stereo partly drawn) [Example 231, (4S)—N-(3-Chloro-4-fluorophenyl)-N-cyclopropyl-1-(2,3-dihydroxypropyl)-3-(6-methyl-4-(trifluoromethyl)pyridin-2-yl)-2-oxoimidazolidine-4-carboxamide] | 94 nM
Cc1cc(C(F)(F)F)cc(N2C(=O)N(CC3(O)CNC3)C[C@H]2C(=O)N(C)c2ccc(F)c(Cl)c2F)n1 [Example 224, (S)—N-(3-Chloro-2,4-difluorophenyl)-1-((3-hydroxyazetidin-3-yl)methyl)-N-methyl-3-(6-methyl-4-(trifluoromethyl)pyridin-2-yl)-2-oxoimidazolidine-4-carboxamide] | 6 nM
Cc1cc(C(F)(F)F)cc(N2C(=O)OC[C@H]2C(=O)N(C)c2ccc(F)c(Br)c2)n1 [Example 93, (S)-N-(3-Bromo-4-fluorophenyl)-N-methyl-3-(6-methyl-4-(trifluoromethyl)pyridin-2-yl)-2-oxooxazolidine-4-carboxamide] | 16 nM
Cc1cccc(N(C)C(=O)[C@@H]2CCC(=O)N2c2cc(C(F)(F)F)cc(C)n2)c1 [Example 59, (S)—N-Methyl-1-(6-methyl-4-(trifluoromethyl)pyridin-2-yl)-5-oxo-N-(m-tolyl)pyrrolidine-2-carboxamide] | 7 nM
Cc1cc(C(F)(F)F)cc(N2C(=O)OC[C@H]2C(=O)N(C)c2ccc(Br)c(Cl)c2)n1 [Example 172, (S)-N-(4-Bromo-3-chlorophenyl)-N-methyl-3-(6-methyl-4-(trifluoromethyl)pyridin-2-yl)-2-oxooxazolidine-4-carboxamide] | 20 nM
CCc1cc(N2C[C@@H](O)C[C@H]2C(=O)N(C)c2cccc(C)c2)ncc1C [Example 35, (2S,4S)-1-(4-Ethyl-5-methylpyridin-2-yl)-4-hydroxy-N-methyl-N-(m-tolyl)pyrrolidine-2-carboxamide] | 620 nM
CCN(C(=O)[C@@H]1C[C@H](N2CCOCC2)C(=O)N1c1cc(C(F)(F)F)cc(C)n1)c1ccc(F)c(Cl)c1 [Example 63, (2S,4S)—N-(3-Chloro-4-fluorophenyl)-N-ethyl-1-(6-methyl-4-(trifluoro-methyl)pyridin-2-yl)-4-morpholino-5-oxopyrrolidine-2-carboxamide] | 410 nM
Cc1cc(C(F)(F)F)cc(N2C(=O)[C@@H](O)[C@@H](O)[C@H]2C(=O)N(C)c2cc(F)cc(Cl)c2)n1 [Example 68, (2S,3S,4S)-N-(3-Chloro-5-fluoro-phenyl)-3,4-dihydroxy-N-methyl-1-(6-methyl-4-(trifluoromethyl)pyridin-2-yl)-5-oxopyrrolidine-2-carboxamide] | 31 nM
Cc1cc(C(F)(F)F)cc(N2C(=O)OC[C@H]2C(=O)N(C)c2ccc(Br)cc2F)n1 [Example 94, (S)-N-(4-Bromo-2-fluorophenyl)-N-methyl-3-(6-methyl-4-(trifluoromethyl)pyridin-2-yl)-2-oxooxazolidine-4-carboxamide] | 12 nM
Cc1cc(C(F)(F)F)c(C#N)c(N2C[C@@H](O)C[C@H]2C(=O)N(C)c2ccc(C(F)(F)F)c(F)c2)n1 [Example 19, (2S,4S)-1-(3-Cyano-6-methyl-4-(trifluoromethyl)pyridin-2-yl)-N-(3-fluoro-4-(trifluoromethyl)-phenyl)-4-hydroxy-N-methyl-pyrrolidine-2-carboxamide] | 524 nM
CCN(C(=O)[C@@H]1C[C@H](N(C)[C@@H]2CCOC[C@H]2O)CN1c1cc(C(F)(F)F)cc(C)n1)c1ccc(F)c(F)c1 [Example 139, (2S,4S)—N-(3,4-Difluorophenyl)-N-ethyl-4-(((3S,4R)-3-hydroxytetrahydro-2H-pyran-4-yl)(methyl)amino)-1-(6-methyl-4-(trifluoromethyl)pyridin-2-yl)pyrrolidine-2-carboxamide] | 164 nM
CCN(C(=O)[C@H]1C[C@@H](N(C)C2CCN(C(C)=O)C2)CN1c1nc(C)cc(C)c1C#N)c1cccc(C)c1 (stereo in doubt) [Example 52, (2R,4R)-4-((1-Acetylpyrrolidin-3-yl)(methyl)amino)-1-(3-cyano-4,6-dimethylpyridin-2-yl)-N-ethyl-N-(m-tolyl)pyrrolidine-2-carboxamide] | 588 nM

Results, then the compound that gave them:

IC50 | SMILES
32 nM | Cc1cc(C(F)(F)F)cc(N2C(=O)N(CC3CN(C)C3)C[C@H]2C(=O)N(C)c2ccc(F)c(Cl)c2F)n1 [Example 189, (S)—N-(3-Chloro-2,4-difluorophenyl)-N-methyl-3-(6-methyl-4-(trifluoromethyl)pyridin-2-yl)-1-((1-methylazetidin-3-yl)methyl)-2-oxoimidazolidine-4-carboxamide]
240 nM | Cc1cc(C(F)(F)F)c(C#N)c(N2[C@H](C)CC[C@H]2C(=O)N(C)c2ccc(F)c(Cl)c2)n1 [Example 241, (2S,5R)—N-(3-Chloro-4-fluorophenyl)-1-(3-cyano-6-methyl-4-(trifluoromethyl)pyridin-2-yl)-N,5-dimethylpyrrolidine-2-carboxamide]
24 nM | Cc1cc(C(F)(F)F)cc(N2C(=O)N(CCN3CC[C@H](O)C3)C[C@H]2C(=O)N(C)c2ccc(F)c(Cl)c2)n1 [Example 196, (S)-N-(3-Chloro-4-fluorophenyl)-1-(2-((S)-3-hydroxypyrrolidin-1-yl)ethyl)-N-methyl-3-(6-methyl-4-(trifluoromethyl)pyridin-2-yl)-2-oxoimidazolidine-4-carboxamide]
15 nM | CCN(C(=O)[C@@H]1C[C@H](N2CCO[C@H](CO)C2)CN1c1nc(C)cc(C(F)(F)F)c1C#N)c1ccc(F)c(Cl)c1 [Example 154, (2S,4S)-N-(3-Chloro-4-fluorophenyl)-1-(3-cyano-6-methyl-4-(trifluoromethyl)pyridin-2-yl)-N-ethyl-4-((S)-2-(hydroxymethyl)morpholino)pyrrolidine-2-carboxamide]
32 nM | Cc1cccc(N(C)C(=O)[C@@H]2[C@H](O)CCN2c2nc(C)cc(C)c2C#N)c1 [Example 25, (2S,3R)-1-(3-Cyano-4,6-dimethylpyridin-2-yl)-3-hydroxy-N-methyl-N-(m-tolyl)pyrrolidine-2-carboxamide]
223 nM | CCN(C(=O)[C@@H]1C[C@H](N[C@@H]2CN(C(=O)OC(C)(C)C)C[C@H]2O)CN1c1cc(C(F)(F)F)cc(C)n1)c1ccc(F)c(F)c1 (racemic) [Example 135, rac-tert-Butyl (3R,4R)-3-(((3S,5S)-5-((3,4-difluorophenyl)(ethyl)carbamoyl)-1-(6-methyl-4-(trifluoromethyl)-pyridin-2-yl)pyrrolidin-3-yl)amino)-4-hydroxypyrrolidine-1-carboxylate]
72 nM | Cc1cc(C(F)(F)F)c(C#N)c(N2CCC[C@H]2C(=O)N(C)c2ccccc2)n1 [Example 1, (S)-1-(3-Cyano-6-methyl-4-(trifluoromethyl)pyridin-2-yl)-N-methyl-N-phenylpyrrolidine-2-carboxamide]
172 nM | Cc1cccc(N(C)C(=O)[C@@H]2C[C@H](O)CN2c2cc(C)c(Cl)c(C)n2)c1 [Example 29, (2S,4S)-1-(5-Chloro-4,6-dimethylpyridin-2-yl)-4-hydroxy-N-methyl-N-(m-tolyl)pyrrolidine-2-carboxamide]
514 nM | COc1cc(C(F)(F)F)c(C#N)c(N2C[C@@H](O)C[C@H]2C(=O)N(C)c2cccc(C)c2)n1 [Example 30, (2S,4S)-1-(3-Cyano-6-methoxy-4-(trifluoromethyl)pyridin-2-yl)-4-hydroxy-N-methyl-N-(m-tolyl)pyrrolidine-2-carboxamide]

same assay, conditions: read-out: Polθ IC50; full length N-His, C-term FLAG tagged Polθ, PicoGreen fluorescence, 12 point concentration response

IC50 | SMILES
35 nM | Cc1cc(C(F)(F)F)cc(N2C(=O)OC[C@H]2C(=O)N(c2ccc(F)c(Cl)c2)C(C)C)n1 [Example 104, (S)-N-(3-Chloro-4-fluorophenyl)-N-isopropyl-3-(6-methyl-4-(trifluoromethyl)pyridin-2-yl)-2-oxooxazolidine-4-carboxamide]
15 nM | Cc1cc(C(F)(F)F)cc(N2C(=O)OC[C@H]2C(=O)N(C)c2cccc(Cl)c2F)n1 [Example 95, (S)-N-(3-Chloro-2-fluorophenyl)-N-methyl-3-(6-methyl-4-(trifluoromethyl)pyridin-2-yl)-2-oxooxazolidine-4-carboxamide]
